Source: US20220265817A1, “THERAPEUTIC COMPOSITIONS AND METHODS FOR TREATING HEPATITIS B” (priority 2017, published 2022)

System: hepatitis B virus (HBV)
Test: Mouse model of HBV (AAV1.2 tail vein injection), serum HBsAg enzyme immunoassay
Format: in vivo, C57/B16 mice
Conditions: Compound 20 3.0 mg/kg oral twice daily Days 0-28, HBV siRNA (LNP) 0.3 mg/kg IV Day 0, n=5 (n=4 vehicle + siRNA)
Experimental: This viral vector contains a 1.2-fold overlength copy of the HBV genome and expresses HBV surface antigen (HBsAg) amongst other HBV products. Serum HBsAg expression in mice was monitored using an enzyme immunoassay. Animals were sorted (randomized) into groups based on serum HBsAg levels such that a) all animals were confirmed to express HBsAg and b) HBsAg group means were similar to each other prior to initiation of treatments.
Animals were treated with Compound 20 as follows: Starting on Day 0, a 3.0 mg/kg dosage of Compound 20 was administered orally to animals on a twice-daily frequency for a total of 56 doses between Days 0 and 28. Compound 20 was dissolved in a co-solvent formation for administration. Negative control animals were administered either the co-solvent formulation alone, or were not treated with any test article. Animals were treated with lipid nanoparticle (LNP)-encapsulated HBV-targeting siRNAs as follows: On Day 0, an amount of test article equivalent to 0.3 mg/kg siRNA was administered intravenously. The HBsAg expression levels for each treatment were compared against the Day 0 (pre-dose) values for that group.
The effect of these treatments was determined by collecting blood on Days 0 (pre-treatment), 7, 14, and 28 and analyzing it for serum HBsAg content.

COCCCOc1cc2c(cc1OC)-c1cc(=O)c(C(=O)O)cn1[C@H](C(C)C)C2 [Compound 20]
serum HBsAg as percentage of pre-treatment baseline at Day 0 (mean ± SEM) (D 7): 7 ± 1% | serum HBsAg as percentage of pre-treatment baseline at Day 0 (mean ± SEM) (D 14): 8 ± 2% | serum HBsAg as percentage of pre-treatment baseline at Day 0 (mean ± SEM) (D 21): 7 ± 2% | serum HBsAg as percentage of pre-treatment baseline at Day 0 (mean ± SEM) (D 28): 8 ± 2%
